# Results taken from ChEMBL document CHEMBL1140156, “Polyoxygenated diterpenes from the sponge Phorbas sp” (2008).
# Activity calls are given as the source filed them. The calls are words filed in the database; no cut-off is given here.
# Legend:
# K562 = experiment: Cytotoxicity against human K562 cells; type: functional; conditions: for CC50: read-out: LC50 (the source's name)
# [1] = Inhibition of isocitrate lyase
Structure (SMILES),Activity (K562),Activity [1],CC50 (K562) [µg/mL],IC50 [1] [µg/mL]
CC(C)=CCCC(C)/C=C/C=C(\C)[C@H]1CC[C@H](C(=O)O)CC1 (some centres undefined),inactive,inactive,–,–
CCCC(=O)O[C@@H]1[C@@H](OC(C)=O)[C@@H](O)C(C)=C[C@@H]2[C@H]3[C@@H](C(C)C)[C@@H](OC(=O)CC(C)C)[C@H](OC(=O)CCC)[C@@]3(C)[C@@H](OC(=O)CCC)C[C@]21C [GAGUNIN A],–,–,18.1,55
CCCC(=O)O[C@@H]1[C@H](C(C)C)[C@@H]2[C@H]3C=C(C)[C@H](O)[C@H](OC(C)=O)[C@@H](OC(=O)CCC)[C@]3(C)C[C@H](OC(=O)CCC)[C@]2(C)[C@H]1OC(=O)CCC [GAGUNIN B],–,–,3.5,55
CCCC(=O)O[C@@H]1[C@H](C(C)C)[C@@H]2[C@H]3C=C(C)[C@H](O)[C@H](OC(C)=O)[C@@H](OC(=O)CCC)[C@]3(C)C[C@H](OC(=O)CCC)[C@]2(C)[C@H]1OC(C)=O [GAGUNIN C],–,–,0.37,55
CCCC(=O)O[C@H]1C[C@]2(C)[C@H]([C@H]1C(C)C)[C@H]1C=C(C)[C@H](O)[C@H](OC(C)=O)[C@@H](OC(=O)CCC)[C@]1(C)C[C@@H]2OC(=O)CCC [GAGUNIN D],–,–,0.19,55
CCCC(=O)O[C@H]1C[C@]2(C)[C@H]([C@H]1C(C)C)[C@H]1C=C(C)[C@H](OC(C)=O)[C@H](O)[C@@H](OC(=O)CCC)[C@]1(C)C[C@@H]2OC(=O)CCC [GAGUNIN F],–,–,0.25,55
CCCC(=O)O[C@H]1C[C@]2(C)[C@H](C=C(C)[C@H](OC(C)=O)[C@H](O)[C@H]2OC(=O)CCC)[C@H]2[C@@H](C(C)C)[C@@H](OC(C)=O)C[C@]21C [GAGUNIN G],–,–,0.45,55
CCCC(=O)O[C@@H]1[C@H](C(C)C)[C@@H]2[C@H]3C=C(C)[C@H](O)[C@H](OC(C)=O)[C@@H](OC(=O)CCC)[C@]3(C)C[C@H](OC(=O)CC)[C@]2(C)[C@H]1OC(=O)CCC [GAGUNIN H],–,–,10,55
CCCC(=O)O[C@@H]1[C@H](C(C)C)[C@@H]2[C@H]3C=C(C)[C@H](O)[C@H](OC(C)=O)[C@@H](OC(=O)CCC)[C@]3(C)C[C@H](OC(C)=O)[C@]2(C)[C@H]1OC(=O)CCC [GAGUNIN I],–,–,11.5,55
CCCC(=O)O[C@@H]1[C@H](C(C)C)[C@@H]2[C@H]3C=C(C)[C@H](O)[C@H](OC(C)=O)[C@@H](OC(=O)CCC)[C@]3(C)C[C@H](OC(=O)CCC)[C@]2(C)[C@H]1OC(=O)CC [GAGUNIN J],–,–,9.1,55
CCCCC(=O)O[C@@H]1[C@H](C(C)C)[C@@H]2[C@H]3C=C(C)[C@H](O)[C@H](OC(C)=O)[C@@H](OC(=O)CCC)[C@]3(C)C[C@H](OC(=O)CCC)[C@]2(C)[C@H]1OC(=O)CCC [GAGUNIN K],–,–,17.5,55
CCCC(=O)O[C@H]1C[C@]2(C)[C@H]([C@H]1C(C)C)[C@H]1C=C(C)[C@H](O)[C@H](OC(C)=O)[C@@H](OC(=O)CCC)[C@]1(C)C[C@@H]2OC(C)=O [GAGUNIN L],–,–,12.5,55
CCCC(=O)O[C@H]1C[C@]2(C)[C@H]([C@H]1C(C)C)[C@H]1C=C(C)[C@H](O)[C@H](OC(C)=O)[C@@H](OC(=O)CCC)[C@]1(C)C[C@@H]2OC(=O)CC(C)C [GAGUNIN M],–,–,0.71,55
CCCC(=O)O[C@H]1C[C@]2(C)[C@H]([C@H]1C(C)C)[C@H]1C=C(C)[C@H](OC(C)=O)[C@H](O)[C@@H](OC(=O)CCC)[C@]1(C)C[C@@H]2OC(C)=O [GAGUNIN N],–,–,> 50,55
CCCC(=O)O[C@@H]1[C@H](C(C)C)[C@@H]2[C@H]3C=C(C)[C@H](OC(C)=O)[C@H](O)[C@@H](OC(=O)CCC)[C@]3(C)C[C@H](OC(=O)CCC)[C@]2(C)[C@H]1OC(=O)CCC [GAGUNIN O],–,–,11.1,55
CCCC(=O)O[C@@H]1[C@H](C(C)C)[C@@H]2[C@H]3C=C(C)[C@H](O)[C@H](OC(C)=O)[C@@H](OC(C)=O)[C@]3(C)C[C@H](OC(=O)CCC)[C@]2(C)[C@H]1OC(=O)CCC [GAGUNIN P],–,–,8.5,55
CCCC(=O)O[C@@H]1[C@H](C(C)C)[C@@H]2[C@H]3C=C(C)[C@H](O)[C@H](OC(=O)CC)[C@@H](OC(=O)CCC)[C@]3(C)C[C@H](OC(=O)CCC)[C@]2(C)[C@H]1OC(=O)CCC [GAGUNIN Q],–,–,> 50,55
